Literature values, collected in patent CN115177586A, “一种卡泊三醇组合物” (Jiangsu Zhiyuan Pharmaceutical Co ltd, priority 2022, dated 2022).

Settings: not told

permeability: 渗透性极差
SMILES: C=C1/C(=C\C=C2/CCC[C@]3(C)[C@@H]([C@H](C)/C=C/[C@@H](O)C4CC4)CC[C@@H]23)C[C@@H](O)C[C@@H]1O [卡泊三醇]
